For one test, the target named is T1, trypsin (Bos taurus, UniProt P00760).
T1 construct: from tissue; host or cells: bovine pancreas
T1 sequence (P00760 24-246): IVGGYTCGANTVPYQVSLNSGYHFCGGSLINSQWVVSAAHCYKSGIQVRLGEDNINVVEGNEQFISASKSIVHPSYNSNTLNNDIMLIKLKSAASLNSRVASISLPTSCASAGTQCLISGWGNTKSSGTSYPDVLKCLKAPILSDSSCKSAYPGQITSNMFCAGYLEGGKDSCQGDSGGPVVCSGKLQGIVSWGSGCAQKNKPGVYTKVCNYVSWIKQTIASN
Description: Inhibition of trypsin (TRY). The class given is biochemical, bovine.

In test [1] the target is T2, porcine pancreatic elastase (Sus scrofa, UniProt P00772).
T2 construct: from tissue; host or cells: porcine pancreas
Description: Inhibition of porcine pancreatic elastase (PPE). The class given is biochemical. Particulars: porcine pancreatic elastase 240 nM, pH 8.9, 10 minute preincubation, 30° C. The method, then: (§1) HLE, CTG, PPE and CTD were tested at 30° C. and the others were
(§2) aminopeptidase M; CTG, cathespin G; CTD, cathespin D; PPE, porcine
Porcine pancreatic Elastase (PPE)
Enzyme: Purified elastase from porcine pancreas
Substrate: MeO-succinyl-L-alanyl-L-alanyl-L-prolyl-L-valine-pNA
Reaction mixture: 50 mM Tris[Tris(hydroxymethyl) aminomethane]. HCl buffer (pH 8.9), 500 mM NaCl, 10% DMSO, 1.4 mM Substrate.
(§3) Except for Cathepsin D, the enzyme activities were determined by monitoring the increase in absorbance at 410 nm caused by the hydrolysis of chromogenic substrates. The activity of Cathepsin D was determined by monitoring the absorbance of 5% trichloroacetic acid-soluble material at 280 nm.
(§4) Inhibition of enzymes by the compounds described were determined after a 10 minute preincubation with enzymes in reaction mixtures minus substrate. Reactions were initiated by the addition of substrates. The concentration used for assays were porcine pancreatic elastase at 240 nM and human Cathepsin G at 50 nM. Cathepsin D was used at the concentration that produced approximately 0.15 O.D. increase per 20 min at 280 nm under the standard conditions. All other proteases were assayed at the concentrations that produced approximately 0.1 O.D. change per minute at 410 nm under the standard conditions.

Another test has as its target T3, cathepsin C (Bos taurus, UniProt Q3ZCJ8).
T3 construct: from tissue; host or cells: bovine spleen
Description: Inhibition of cathepsin C (CTC). The class given is biochemical, bovine. The method, then: as §1
(§5) TRY, trypsin; THR, thrombin; PTH, plasmin; CTC, cathepsin C; ATM,
Enzyme: Purified cathepsin C from bovine spleen
Substrate: Glycyl-L-phenylalanine-pNA
Reaction mixture: 50 mM Citrate buffer (pH 5.4), 5 mM B-Mercaptoethanol, 150 mM NaCl, 10% DMSO, 20 mM Substrate.
as §3, §4

For a further test, the target named is T4, aminopeptidase M (Sus scrofa, UniProt P15145).
T4 construct: from tissue; host or cells: porcine kidney
T4 sequence (P15145 1-963): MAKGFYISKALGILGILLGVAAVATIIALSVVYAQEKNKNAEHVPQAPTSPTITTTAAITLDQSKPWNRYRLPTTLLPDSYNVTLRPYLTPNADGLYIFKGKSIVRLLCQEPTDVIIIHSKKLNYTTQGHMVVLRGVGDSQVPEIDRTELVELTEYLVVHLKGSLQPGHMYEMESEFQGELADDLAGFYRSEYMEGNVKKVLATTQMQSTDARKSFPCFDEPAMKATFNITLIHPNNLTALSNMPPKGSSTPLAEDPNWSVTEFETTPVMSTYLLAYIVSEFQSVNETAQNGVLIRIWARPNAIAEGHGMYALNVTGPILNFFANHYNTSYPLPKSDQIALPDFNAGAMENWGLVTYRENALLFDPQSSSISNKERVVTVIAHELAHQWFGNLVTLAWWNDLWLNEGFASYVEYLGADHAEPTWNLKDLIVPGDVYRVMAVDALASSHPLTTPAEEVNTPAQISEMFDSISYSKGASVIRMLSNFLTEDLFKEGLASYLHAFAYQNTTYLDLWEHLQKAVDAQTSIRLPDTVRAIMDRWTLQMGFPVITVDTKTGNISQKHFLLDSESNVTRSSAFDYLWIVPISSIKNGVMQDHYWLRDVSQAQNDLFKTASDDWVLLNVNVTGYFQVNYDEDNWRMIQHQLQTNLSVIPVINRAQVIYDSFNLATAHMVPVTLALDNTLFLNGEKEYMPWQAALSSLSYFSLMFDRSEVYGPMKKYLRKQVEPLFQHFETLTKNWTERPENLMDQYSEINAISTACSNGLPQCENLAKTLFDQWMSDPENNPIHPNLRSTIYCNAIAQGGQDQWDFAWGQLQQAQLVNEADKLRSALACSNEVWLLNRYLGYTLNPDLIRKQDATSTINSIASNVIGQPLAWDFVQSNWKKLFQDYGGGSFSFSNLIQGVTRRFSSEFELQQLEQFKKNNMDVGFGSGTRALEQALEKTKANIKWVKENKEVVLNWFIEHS
Description: Inhibition of aminopeptidase M (ATM). The class given is biochemical, porcine. The method, then:
as §1, §5, §2
Enzyme: Purified aminopeptidase M from porcine kidney
Reaction Mixture: 50 mM Tricine buffer (pH 7.5), 500 mM NaCl, 10% DMSO, 2.0 mM Substrate.
as §3, §4

Test [2] addresses T5, human leukocyte elastase (HLE) (Homo sapiens, UniProt P08246).
T5 construct: from tissue; host or cells: human white blood cells
T5 sequence (P08246 30-247 limits assumed): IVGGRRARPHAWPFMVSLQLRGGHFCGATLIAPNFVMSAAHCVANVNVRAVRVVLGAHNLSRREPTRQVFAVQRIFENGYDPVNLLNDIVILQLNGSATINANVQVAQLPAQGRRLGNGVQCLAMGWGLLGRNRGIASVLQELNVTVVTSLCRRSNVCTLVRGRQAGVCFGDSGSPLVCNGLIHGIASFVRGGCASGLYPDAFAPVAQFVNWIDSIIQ
The test is described as follows: Enzyme Assay for Inhibition of HLE. The class given is biochemical. The conditions noted are these: HLE 10 nM, pH 7.6, 10 minute preincubation, 30° C. The method, then:
Enzyme Assay for Inhibition of HLE:
Enzyme: Purified elastase from human white blood cells.
Substrate: MeO-succinyl-L-alanyl-L-alanyl-L-prolyl-L-valine-p-nitro-anilide(NA).
Reaction Mixture: 10 mM phosphate buffer (pH 7.6), 500 mM NaCl, 10% dimethylsulfoxide (DMSO), 0.35 mM substrate.
The enzyme activity was determined by monitoring the increase in absorbance at 410 nm caused by the hydrolysis of chromogenic substrates. Inhibition of enzyme by the compounds described were determined after a 10 minute preincubation with the enzyme in reaction mixture minus substrate. Reaction was initiated by the addition of substrate. The concentration of human leukocyte elastase used for assay was at 10 nM.
HLE, CTG, PPE and CTD were tested at 30° C. and the others were […]

[3] abbreviates: trypsin, pH 8.8, 10 minute preincubation, 22° C., read-out: IC50 TRY (converted).
The mark [4] stands for this setting: cathepsin C, pH 5.4, 10 minute preincubation, 22° C., read-out: IC50 CTC.
[5] abbreviates: aminopeptidase M, pH 7.5, 10 minute preincubation, 22° C., read-out: IC50 ATM.

Where two headings read alike, the source gives them in different places. Where only a bound is given, the exact number is not on record here.

We go through 11 compounds from patent publication US5264429A, “2-spirocyclopropyl cephalosporin sulfone derivatives” (SynPhar Laboratories, Inc., priority 1991, dated 1993).

T3 sequence (Q3ZCJ8 231-394 limits assumed): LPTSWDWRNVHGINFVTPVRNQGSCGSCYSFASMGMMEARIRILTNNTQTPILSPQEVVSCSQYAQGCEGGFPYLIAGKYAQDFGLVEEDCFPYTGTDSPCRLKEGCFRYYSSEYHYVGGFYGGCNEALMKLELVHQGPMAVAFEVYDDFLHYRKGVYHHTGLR
T3 sequence (Q3ZCJ8 395-463 limits assumed): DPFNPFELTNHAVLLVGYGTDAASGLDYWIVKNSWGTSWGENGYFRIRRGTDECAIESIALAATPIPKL
T3 sequence (Q3ZCJ8 25-134 limits assumed): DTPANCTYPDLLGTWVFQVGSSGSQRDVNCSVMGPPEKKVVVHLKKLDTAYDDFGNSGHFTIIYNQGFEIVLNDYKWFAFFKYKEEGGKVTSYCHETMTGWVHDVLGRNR
T2 sequence (P00772 27-266): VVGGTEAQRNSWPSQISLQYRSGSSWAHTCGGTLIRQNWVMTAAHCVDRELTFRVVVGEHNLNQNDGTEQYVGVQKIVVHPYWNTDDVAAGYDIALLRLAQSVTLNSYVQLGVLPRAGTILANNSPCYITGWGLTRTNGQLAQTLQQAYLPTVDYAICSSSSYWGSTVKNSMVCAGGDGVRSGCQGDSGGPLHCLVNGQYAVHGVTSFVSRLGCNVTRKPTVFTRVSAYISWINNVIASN
Description for trypsin: Enzyme: Purified trypsin from bovine pancreas
Substrate: Bz-L-arginine-p-NA
Reaction mixture: 50 mM Tricine[N-Tris(hydroxymethyl)methylglycine]-NaOH buffer (pH 8.8) 150 mM NaCl, 10% DMSO 1.0 mM Substrate.
Inhibition of enzymes by the compounds described were determined after a 10 minute preincubation with enzymes in reaction mixtures minus substrate. Reactions were initiated by the addition of substrates. […] All other proteases were assayed at the concentrations that produced approximately 0.1 O.D. change per minute at 410 nm under the standard conditions.

As a reminder, the IC50 is the midpoint of a concentration-inhibition curve. Regarding `CC1=C(C(=O)OC(c2ccccc2)c2ccccc2)N2C(=O)[C@H](Cl)[C@H]2S(=O)(=O)C12CC2(c1ccccc1)c1ccccc1` (single isomer, unassigned) [Example 1, Benzhydryl 7α-chloro-2-spiro(2',2'-diphenyl) cyclopropyl-3-methyl-3-cephem-4-carboxylate-1,1-dioxide], the IC50 was over 60000 nM at trypsin (setting [3]); 32.8 nM in test [1]; over 60000 nM at cathepsin C (setting [4]); over 60000 nM at aminopeptidase M (setting [5]); 4.75 nM in test [2].

On to `CC1=C(C(=O)N2CCCC2)N2C(=O)[C@H](Br)[C@H]2S(=O)(=O)C12CC2(c1ccccc1)c1ccccc1` (stereo partly drawn) [Example 6, 7α Bromo-2-spiro(2',2'-diphenyl)cyclopropyl-3-methyl-3-cephem-4-pyrrolidine carboxamide-1,1-dioxide], for which the IC50 was over 39000 nM on trypsin (setting [3]); 203 nM in test [1]; over 9770 nM at cathepsin C (setting [4]); over 9770 nM on aminopeptidase M (setting [5]); 10.7 nM in test [2].

On to `CC1=C(C(=O)OC(c2ccccc2)c2ccccc2)N2C(=O)[C@H](Br)[C@H]2S(=O)(=O)C12CC2(c1ccccc1)c1ccccc1` (single isomer, unassigned) [Example 2, benzhydryl 7α-bromo-2-spiro(2', 2'-diphenyl) cyclopropyl-3-methyl-3-cephem-4-carboxylate-1,1-dioxide], for which the 50% inhibitory concentration (IC50) on trypsin (setting [3]) was over 37000 nM; in test [1], 18.3 nM; on cathepsin C (setting [4]), over 38500 nM; on aminopeptidase M (setting [5]) it was over 40000 nM; in test [2], 33.6 nM.

For the compound `CO[C@H]1C(=O)N2C(C(=O)OC(c3ccccc3)c3ccccc3)=C(C)C3(CC3(c3ccccc3)c3ccccc3)S(=O)(=O)[C@H]12` (stereo partly drawn) [Example 9, Benzhydryl 7α-methoxy-2-spiro (2',2'-diphenyl) cyclopropyl-3-methyl-3-cephem-4-carboxylate-1,1-dioxide], the IC50 against trypsin was over 10000 nM; in test [1], 54.5 nM; against cathepsin C it was over 10000 nM; against aminopeptidase M, over 10000 nM; in test [2], 3.63 nM.

For the compound `CC1=C(C(=O)OC(c2ccccc2)c2ccccc2)N2C(=O)[C@H](Br)[C@H]2S(=O)(=O)C12CC2(c1ccc(F)cc1)c1ccc(F)cc1` (single isomer, unassigned) [Example 13, Benzhydryl 7α-bromo-2-spiro[2',2'-(4',4'-difluoro)diphenyl] cyclopropyl-3-methyl-3-cephem-4-carboxylate-1,1-dioxide], the half-maximal inhibitory concentration (IC50) on trypsin was over 40000 nM; in test [1], 63.7 nM; against cathepsin C, over 40000 nM; against aminopeptidase M, over 40000 nM; in test [2], 5.07 nM.

As to `CCOC(=O)C1CC12C(C)=C(C(=O)OC(c1ccccc1)c1ccccc1)N1C(=O)[C@H](Br)[C@H]1S2(=O)=O` (stereo partly drawn) [Example 13 (1), Benzhydryl 7α-bromo-2-spiro(2'-ethoxycarbonyl)cyclopropyl-3-methyl-3-cephem-4-carboxylate-1,1-dioxide], the half-maximal inhibitory concentration (IC50) at trypsin (setting [3]) is 580 nM; in test [1], 31.3 nM; on cathepsin C, over 40000 nM; against aminopeptidase M, over 40000 nM; in test [2], 64.4 nM.

As to `CO[C@H]1C(=O)N2C(C(=O)N3CCCC3)=C(C)C3(CC3(c3ccccc3)c3ccccc3)S(=O)(=O)[C@H]12` (stereo partly drawn) [Example 10, 7α-Methoxy-2-spiro (2',2'-diphenyl)cyclopropyl-3-methyl-3-cephem-4-pyrrolidine carboxamide-1,1-dioxide], the IC50 was over 35900 nM on trypsin (setting [3]); 83.2 nM in test [1]; over 9990 nM on cathepsin C (setting [4]); over 40000 nM on aminopeptidase M; 44.7 nM in test [2].

For `CO[C@H]1C(=O)N2C(C(=O)OCC(Cl)(Cl)Cl)=C(C)C3(CC3(c3ccccc3)c3ccccc3)S(=O)(=O)[C@H]12` (stereo partly drawn) [Example 8, 2,2,2-Trichloroethyl-7α-methoxy-2-spiro(2',2'-diphenyl) cyclopropyl-3-methyl-3-cephem-4-carboxylate-1,1-dioxide], the IC50 is 648 nM on trypsin (setting [3]); 22.8 nM in test [1]; over 9980 nM against cathepsin C; over 9980 nM at aminopeptidase M; 4.38 nM in test [2].

`CC1=C(C(=O)OC(c2ccccc2)c2ccccc2)N2C(=O)[C@H](Br)[C@H]2S(=O)(=O)C12CC2(C)c1ccccc1` (stereo partly drawn) [Example 13 (2), Benzhydryl 7α-bromo-2-spiro(2'-phenyl-2'-methyl) cyclopropyl-3-methyl-3-cephem-4-carboxylate-1,1-dioxide]: the IC50 was 147 nM at trypsin (setting [3]); 55.7 nM in test [1]; over 40000 nM at cathepsin C; over 40000 nM against aminopeptidase M; 4.73 nM in test [2].

Consider `CC1=C(C(=O)OC(C)(C)C)N2C(=O)[C@H](Br)[C@H]2S(=O)(=O)C12CC2(c1ccccc1)c1ccccc1` (stereo partly drawn) [Example 3, t-Butyl 7α-bromo-2-spiro(2',2'-diphenyl) cyclopropyl-3-methyl-3-cephem 4-carboxylate-1,1-dioxide], for which the IC50 at trypsin (setting [3]) was over 40000 nM; in test [1], 93.7 nM; on cathepsin C (setting [4]) it was over 40000 nM; at aminopeptidase M (setting [5]), over 40000 nM; in test [2], 4.96 nM.

`CC1=C(C(=O)OC(c2ccccc2)c2ccccc2)N2C(=O)[C@H](Br)[C@H]2S(=O)(=O)C12CC2(c1ccc(Cl)cc1)c1ccc(Cl)cc1` (single isomer, unassigned) [Example 12, Benzhydryl 7α-bromo-2-spiro [2',2'-(4',4'-dichloro)diphenyl]cyclopropyl-3-methyl-3-cephem-4-carboxylate-1,1-dioxide]: the IC50 against trypsin is 55300 nM; in test [1], 235 nM; against cathepsin C, over 55300 nM; on aminopeptidase M, over 55300 nM; in test [2] it was 10.1 nM.
